{"source": "patent US20080096831A1", "about": "“Stabilized azithromycin composition” (priority 2003, published 2008)", "assay": "Impurity analysis of azithromycin monohydrate granules by HPLC after storage at 50° C. for 8 days", "format": "physicochemical", "conditions": "results of Table 1", "experimental": "Wet granules prepared according to the procedure set forth in Example 1 were placed on a tray which was placed in an oven at 55° C. Six samples were taken at different times and the moisture content was determined using an OHAUS Balance. The water/moisture content of each sample varied from 3.3-12.5 wt %, based on the total weight of the granules. The samples were stored in glass bottles, sealed, and placed in an oven at 50° C. After 8 days, the samples were removed from the oven and the amount and type of impurities was determined by high performance liquid chromatography (HPLC).\nSample solutions were freshly prepared from azithromycin monohydrate and injected on column. The percentages of impurities was calculated from the integrator output. The performance of the HPLC system was tested using standardized solutions of azithromycin monohydrate.\nThree impurities were identified and measured as a percentage of the total azithromycin monohydrate in each sample.", "data": [{"smiles": "CC[C@H]1OC(=O)[C@H](C)[C@@H](O[C@H]2C[C@@](C)(OC)[C@@H](O)[C@H](C)O2)[C@H](C)[C@@H](O[C@@H]2O[C@H](C)C[C@H](N(C)C)[C@H]2O)[C@](C)(O)C[C@@H](C)CN(C)[C@H](C)[C@@H](O)[C@]1(C)O", "note": "(relative stereo) [azithromycin monohydrate, [2R-(2R*,3S*,4R*,5R*,8R*, 10R*, 11R*, 12S*, 13S*, 14R*)]-13-[(2,6-dideoxy-3-C-methyl-3-β-methyl-α-L-ribo-hexopyranosyl)oxy]-2-ethyl-3,4,10-trihydroxy-3,5,6,8,10,12,14-heptamethyl-11-[[3,4,6-trideoxy-3-(dimethylamino)-β-D-xylo-hexopyranosyl]oxy]-1-oxa-6-azacyclopentadecan-15-one monohydrate]", "values": [{"measurement": "water content range in which chemical stability is good", "result": "5.5-12.4 wt %"}]}]}
